Laboratory results as given in ChEMBL document CHEMBL4840307, “Synthesis and biological evaluation of 1-(4-(piperazin-1-yl)phenyl)pyridin-2(1H)-one derivatives as potential SSRIs” (Eur J Med Chem, 2021).
Calls of active or inactive are those of the source. No cut-off for these calls is given here.

Legend:
[1] = target: Sodium-dependent serotonin transporter (Rattus norvegicus, UniProt P31652); test: Inhibition of serotonin transporter expressed in rat brain tissue assessed as inhibition of [3H]-5-hydroxytryptamine reuptake measured after 15 mins by scintillation counting analysis; assay type: tissue-based
[2] = target: 5-hydroxytryptamine receptor 2A (Homo sapiens, UniProt P28223); test: Inhibition of 5-HT2a (unknown origin)
[3] = target: Sodium-dependent serotonin transporter (Rattus norvegicus) (UniProt P31652); test: Antagonist activity at SERT in Sprague-Dawley rat hypothalamus assessed as PCA induced serotonin depletion at 10 mg/kg, iv measured after 30 mins by LC-MS/MS analysis; assay type: organism-based; details: filed as antagonist
[4] = AUC (0 to t) in Sprague-Dawley rat at 5 mg/kg, po measured by LC-MS/MS analysis; assay type: ADME, organism-based; parameters: dose 5 mg/kg; details: in vivo
[5] = Half life in Sprague-Dawley rat at 5 mg/kg, po measured by LC-MS/MS analysis; assay type: ADME, organism-based; details: in vivo
[6] = test system: Rattus norvegicus; test: Antidepressant-like activity in rat assessed as reduction in immobility time at 3 ml/kg, sc measured after 60 mins by Forced swimming test; assay type: functional, organism-based
[7] = Clearance in Sprague-Dawley rat at 2 mg/kg, iv measured by LC-MS/MS analysis; assay type: ADME, organism-based; details: in vivo
[8] = Half life in Sprague-Dawley rat at 2 mg/kg, iv measured by LC-MS/MS analysis; assay type: ADME, organism-based; details: in vivo
[9] = AUC (0 to t) in Sprague-Dawley rat at 2 mg/kg, iv measured by LC-MS/MS analysis; assay type: ADME, organism-based; parameters: dose 2 mg/kg; details: in vivo
[10] = test system: Rattus norvegicus; test: Antidepressant-like activity in rat assessed as reduction in immobility time at 10 ml/kg, sc measured after 60 mins by Forced swimming test; assay type: functional, organism-based
[11] = target: T1, 5-hydroxytryptamine receptor 1A (Homo sapiens, UniProt P08908); test: Inhibition of 5-HT1a (unknown origin)
T1 sequence (P08908 whole entry): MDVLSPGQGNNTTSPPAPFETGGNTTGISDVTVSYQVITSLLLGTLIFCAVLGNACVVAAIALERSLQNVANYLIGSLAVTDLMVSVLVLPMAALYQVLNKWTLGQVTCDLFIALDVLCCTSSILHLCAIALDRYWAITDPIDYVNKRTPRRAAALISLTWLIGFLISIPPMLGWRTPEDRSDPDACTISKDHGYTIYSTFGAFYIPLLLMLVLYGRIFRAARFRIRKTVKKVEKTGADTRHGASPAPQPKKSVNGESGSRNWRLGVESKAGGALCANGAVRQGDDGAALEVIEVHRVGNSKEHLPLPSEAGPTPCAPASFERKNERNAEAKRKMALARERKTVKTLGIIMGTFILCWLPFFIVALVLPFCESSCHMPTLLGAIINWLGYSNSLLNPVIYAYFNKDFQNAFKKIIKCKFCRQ

[12] = Cmax in Sprague-Dawley rat at 2 mg/kg, iv measured by LC-MS/MS analysis; assay type: ADME, organism-based; parameters: route intravenous, dose 2 mg/kg; details: in vivo
[13] = Volume of distribution in steady state in Sprague-Dawley rat at 2 mg/kg, iv measured by LC-MS/MS analysis; assay type: ADME, organism-based; details: in vivo, read-out: Vdss
[14] = target: T2, 5-hydroxytryptamine receptor 3A (Homo sapiens, UniProt P46098); test: Inhibition of 5-HT3 (unknown origin)
T2 sequence (P46098 whole entry): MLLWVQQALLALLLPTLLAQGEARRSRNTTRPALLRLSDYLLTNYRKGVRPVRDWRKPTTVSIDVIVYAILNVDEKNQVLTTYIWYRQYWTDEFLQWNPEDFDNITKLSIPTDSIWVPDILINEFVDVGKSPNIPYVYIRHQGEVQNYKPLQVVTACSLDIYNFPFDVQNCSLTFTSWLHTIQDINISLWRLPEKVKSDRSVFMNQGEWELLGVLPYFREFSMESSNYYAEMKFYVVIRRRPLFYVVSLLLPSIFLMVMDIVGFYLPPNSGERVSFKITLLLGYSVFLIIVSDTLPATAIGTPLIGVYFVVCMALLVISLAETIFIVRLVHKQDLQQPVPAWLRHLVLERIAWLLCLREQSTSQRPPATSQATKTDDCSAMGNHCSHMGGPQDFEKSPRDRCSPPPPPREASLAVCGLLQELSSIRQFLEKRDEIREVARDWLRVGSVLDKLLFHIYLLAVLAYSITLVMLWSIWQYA

[15] = Oral bioavailability in Sprague-Dawley rat at 5 mg/kg measured by LC-MS/MS analysis; assay type: ADME, organism-based; details: in vivo
[16] = Cmax in Sprague-Dawley rat at 5 mg/kg, po measured by LC-MS/MS analysis; assay type: ADME, organism-based; parameters: route oral, dose 5 mg/kg; details: in vivo
[17] = Metabolic stability in rat liver microsomes assessed as clearance incubated for 60 mins by LC-MS/MS analysis; assay type: ADME, Microsome; details: read-out: CLH
[18] = target: T3, 5-hydroxytryptamine receptor 2C (Homo sapiens, UniProt P28335); test: Inhibition of 5-HT2c (unknown origin)
T3 sequence (P28335 whole entry): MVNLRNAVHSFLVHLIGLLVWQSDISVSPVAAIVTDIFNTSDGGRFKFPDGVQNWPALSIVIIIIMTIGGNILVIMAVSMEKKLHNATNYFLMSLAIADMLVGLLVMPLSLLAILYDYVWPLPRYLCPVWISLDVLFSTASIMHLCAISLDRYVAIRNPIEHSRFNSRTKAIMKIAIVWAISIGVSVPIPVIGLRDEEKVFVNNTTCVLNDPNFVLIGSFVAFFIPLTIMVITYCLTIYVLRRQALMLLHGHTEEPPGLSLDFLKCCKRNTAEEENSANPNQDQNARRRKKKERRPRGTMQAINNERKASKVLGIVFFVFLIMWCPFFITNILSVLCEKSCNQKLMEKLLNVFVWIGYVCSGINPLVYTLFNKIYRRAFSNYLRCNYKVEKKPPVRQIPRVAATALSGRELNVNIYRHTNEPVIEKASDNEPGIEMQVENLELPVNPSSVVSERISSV

[19] = Metabolic stability in rat liver microsomes assessed as half life incubated for 60 mins by LC-MS/MS analysis; assay type: ADME, Microsome

Sequence of 5-hydroxytryptamine receptor 2A (P28223 whole entry): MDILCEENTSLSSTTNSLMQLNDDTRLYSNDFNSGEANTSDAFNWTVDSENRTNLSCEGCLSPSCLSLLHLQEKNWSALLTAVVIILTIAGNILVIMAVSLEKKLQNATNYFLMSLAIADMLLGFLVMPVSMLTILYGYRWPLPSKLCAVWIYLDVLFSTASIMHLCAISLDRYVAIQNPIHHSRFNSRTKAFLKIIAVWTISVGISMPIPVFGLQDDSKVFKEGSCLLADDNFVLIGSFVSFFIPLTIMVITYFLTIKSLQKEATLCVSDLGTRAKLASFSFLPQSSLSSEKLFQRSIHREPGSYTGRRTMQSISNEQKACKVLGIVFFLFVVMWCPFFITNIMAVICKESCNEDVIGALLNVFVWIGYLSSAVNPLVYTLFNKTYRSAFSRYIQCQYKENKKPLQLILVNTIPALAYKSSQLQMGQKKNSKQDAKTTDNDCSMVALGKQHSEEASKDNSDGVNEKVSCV
Sequence of Sodium-dependent serotonin transporter (P31652 whole entry): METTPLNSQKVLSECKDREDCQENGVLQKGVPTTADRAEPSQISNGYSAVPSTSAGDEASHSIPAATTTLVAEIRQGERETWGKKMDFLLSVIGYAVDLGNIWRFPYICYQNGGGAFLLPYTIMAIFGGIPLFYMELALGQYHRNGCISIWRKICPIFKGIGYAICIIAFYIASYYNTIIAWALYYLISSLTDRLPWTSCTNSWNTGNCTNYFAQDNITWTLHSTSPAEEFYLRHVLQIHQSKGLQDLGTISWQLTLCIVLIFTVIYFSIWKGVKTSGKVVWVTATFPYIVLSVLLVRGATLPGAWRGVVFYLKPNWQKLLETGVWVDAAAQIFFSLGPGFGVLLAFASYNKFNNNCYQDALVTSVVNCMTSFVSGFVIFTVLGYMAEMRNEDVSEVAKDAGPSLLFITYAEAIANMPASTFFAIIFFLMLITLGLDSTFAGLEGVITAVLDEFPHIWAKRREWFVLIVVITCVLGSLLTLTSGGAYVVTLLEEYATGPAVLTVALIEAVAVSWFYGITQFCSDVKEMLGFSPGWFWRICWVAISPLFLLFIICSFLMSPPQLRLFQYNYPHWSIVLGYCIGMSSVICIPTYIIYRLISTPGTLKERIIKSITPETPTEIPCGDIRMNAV
Sequence of Sodium-dependent serotonin transporter (Rattus norvegicus) (P31652 whole entry): as above

N#Cc1ccc2[nH]cc(CCCCN3CCN(c4ccc(-n5ccc6ccccc6c5=O)cc4)CC3)c2c1
IC50 [1]: 4.31 nM

Cc1ccn(-c2ccc(N3CCN(CCCCc4c[nH]c5ccc(C#N)cc45)CC3)cc2)c(=O)c1
IC50 [1]: 2.03 nM

N#Cc1ccc2[nH]cc(CCN3CCN(c4ccc(-n5cc(F)ccc5=O)cc4)CC3)c2c1
IC50 [1]: 5.51 nM

Cc1ccn(-c2ccc(N3CCN(CCc4c[nH]c5ccc(C#N)cc45)CC3)cc2)c(=O)c1
IC50 [1]: 7.57 nM

N#Cc1ccc2[nH]cc(CCCN3CCN(c4ccc(-n5ccc6ccccc6c5=O)cc4)CC3)c2c1
IC50 [1]: 10.2 nM

N#Cc1ccc2[nH]cc(CCCCN3CCN(c4ccc(-n5ccc6ncccc6c5=O)cc4)CC3)c2c1
IC50 [2]: > 10000 nM | Activity [3]: Active | AUC(0-t) [4]: 189 ng·h/mL | half-life [5]: 0.82 h | Activity [6]: Active | clearance [7]: 40.8 mL/min/kg | half-life [8]: 1.01 h | AUC(0-t) [9]: 823 ng·h/mL | Activity [10]: Active | IC50 [11]: 0.5 nM | Cmax [12]: 831 ng/mL | Vd [13]: 2.47 L/kg | IC50 [14]: > 10000 nM | bioavailability [15]: 9.19% | Cmax [16]: 70.5 ng/mL | CLint scaled [17]: 12.2 mL/min/kg | IC50 [18]: > 10000 nM | half-life [19]: 1.89 h

N#Cc1ccc2[nH]cc(CCCCN3CCN(c4ccc5oc(C(N)=O)cc5c4)CC3)c2c1 [VILAZODONE]
CLint scaled [17]: 77.3 mL/min/kg | half-life [19]: 0.298 h

N#Cc1ccc2[nH]cc(CCCCCN3CCN(c4ccc(-n5cc(F)ccc5=O)cc4)CC3)c2c1
IC50 [1]: 6 nM

COc1ccn(-c2ccc(N3CCN(CCCc4c[nH]c5ccc(C#N)cc45)CC3)cc2)c(=O)c1
IC50 [1]: 4.58 nM

N#Cc1ccc2[nH]cc(CCCCN3CCN(c4ccc(-n5cc(F)ccc5=O)cc4)CC3)c2c1
IC50 [1]: 3.75 nM

N#Cc1ccc2[nH]cc(CCCCCN3CCN(c4ccc(-n5ccccc5=O)cc4)CC3)c2c1
IC50 [1]: 1.35 nM

Cc1ccn(-c2ccc(N3CCN(CCCc4c[nH]c5ccc(C#N)cc45)CC3)cc2)c(=O)c1
IC50 [1]: 2.02 nM

N#Cc1ccc2[nH]cc(CCCCN3CCN(c4ccc(-n5ccc6occc6c5=O)cc4)CC3)c2c1
IC50 [2]: > 10000 nM | AUC(0-t) [4]: 77 ng·h/mL | half-life [5]: 2.26 h | clearance [7]: 59.3 mL/min/kg | half-life [8]: 1.26 h | AUC(0-t) [9]: 559 ng·h/mL | IC50 [11]: 0.14 nM | Cmax [12]: 694 ng/mL | Vd [13]: 3.21 L/kg | IC50 [14]: > 10000 nM | bioavailability [15]: 5.8% | Cmax [16]: 33.6 ng/mL | CLint scaled [17]: 4.4 mL/min/kg | IC50 [18]: > 10000 nM | half-life [19]: 5.2 h

N#Cc1ccc2[nH]cc(CCCN3CCN(c4ccc(-n5ccc6ncccc6c5=O)cc4)CC3)c2c1
IC50 [2]: > 10000 nM | IC50 [11]: 1.7 nM | IC50 [14]: > 10000 nM | CLint scaled [17]: 315 mL/min/kg | IC50 [18]: > 10000 nM | half-life [19]: 0.0735 h

N#Cc1ccc2[nH]cc(CCCCN3CCN(c4ccc(-n5ccccc5=O)cc4)CC3)c2c1
IC50 [1]: 1.6 nM

N#Cc1ccc2[nH]cc(CCCN3CCN(c4ccc(-n5cc(F)ccc5=O)cc4)CC3)c2c1
IC50 [1]: 2.22 nM
